Test results taken from patent publication US9533977B2, “Oxazolidinone derivative as CETP inhibitor, its preparation method, and pharmaceutical composition comprising the same” (DONG-A ST CO., LTD., priority 2013, dated 2017).
Read-outs that look alike come from different tables or passages of the source.

Tests used:
CETP [1] = target: T1, CETP (Homo sapiens, UniProt P11597); test: Inhibitory activity against CETP in human plasma (Roar CETP activity kit, fluorescence); assay type: biochemical; details: plasma from healthy men diluted 1:10 in assay buffer, 37° C., 3 hrs, fluorescence 465/535 nm; read-out: IC50, Inhibition of CETP Activity in Human Plasma
T1 construct: from tissue; host or cells: human plasma from healthy men
T1 sequence (P11597 18-493): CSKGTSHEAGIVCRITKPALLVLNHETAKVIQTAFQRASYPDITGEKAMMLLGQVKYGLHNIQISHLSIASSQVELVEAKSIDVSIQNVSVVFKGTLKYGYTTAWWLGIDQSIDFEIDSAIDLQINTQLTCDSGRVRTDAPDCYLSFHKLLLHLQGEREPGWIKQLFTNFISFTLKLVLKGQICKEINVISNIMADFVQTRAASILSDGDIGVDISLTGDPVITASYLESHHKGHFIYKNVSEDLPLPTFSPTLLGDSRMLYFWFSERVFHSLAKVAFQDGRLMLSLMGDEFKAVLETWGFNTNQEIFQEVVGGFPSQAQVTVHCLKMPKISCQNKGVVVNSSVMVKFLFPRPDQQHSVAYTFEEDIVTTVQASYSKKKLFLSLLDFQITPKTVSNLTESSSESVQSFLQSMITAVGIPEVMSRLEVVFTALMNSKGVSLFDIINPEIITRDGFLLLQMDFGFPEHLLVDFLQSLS
Procedure, shortened: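 Healthy male human plasma, diluted 1:10, incubated 3 hrs at 37° C with donor/acceptor fluorescent substrates and compound (0.01–10000 nM, DMSO). Fluorescence at ex 465/em 535 nm, background-corrected against no-plasma and no-compound wells; IC50 from sigmoidal fit.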

CETP [2] = test: Effect on CETP activity in hamster administered with single dose; assay type: in vivo, Golden Syrian hamsters; details: hamsters, single oral dose 100 mg/kg, blood 0.5-24 hrs after administration, compared to pre-treatment
Protocol: Each of the compounds of the Examples was orally administered at a dose of 100 mg/kg to three 7-week-old male Golden Syrian hamsters per group. Blood samples were taken from the retro-orbital plexus before administration and 0.5, 1, 2, 4, 6, 8, and 24 hrs after administration, and measured for blood CETP activity using a Roar CETP activity assay kit (Cat#: RB-CETP, Roar Biomedical Inc.).

Blood HDL-C = Blood HDL-C level in multi-dosed hamsters; assay type: in vivo, Golden Syrian Hamsters; details: oral 10 mg/kg every day for two weeks, blood two hours after the final administration
Protocol: (§1) Each of the compounds of Examples 58, 96, 103 and 125 was orally administered at a dose of 10 mg/kg to 10 7-week-old male Golden Syrian Hamsters per group, every day for two weeks. Two hours after the final administration, blood samples were taken from the hamsters which then underwent an autopsy to analyze blood lipid levels and drug concentrations in blood and tissues (adipose tissues and liver)

[3] = Drug concentration in blood and tissues of hamsters administered with multiple doses; assay type: in vivo, Golden Syrian Hamsters; details: oral 10 mg/kg every day for two weeks; for concentration at 2 h: male, Golden Syrian, hamster, two hours after the final administration
Protocol: as §1

[4] = adipose tissue, read-out: Drug Concentration Adipose Tissue
[5] = blood, read-out: Drug Concentration Blood
[6] = liver, read-out: Drug Concentration Liver Tissue

Compound	IC50 (CETP [1])	Relative Maximal Inhibition of CETP Activity to Pre-Administration (%) (CETP [2])	further results
CCN(c1ncc(-c2cccn2C)cc1CN1C(=O)O[C@H](c2cc(C(F)(F)F)cc(C(F)(F)F)c2)[C@@H]1C)C1CCOCC1 [Example 50, (4S,5R)-5-[3,5-bis(trifluoromethyl)phenyl]-4-methyl-3-({[2-(ethyl)(tetrahydro-2H-pyran-4-yl)amino]-5-(1-methyl-1H-pyrrol-2-yl)pyridin-3-yl}methyl)-oxazolidin-2-one]	11.1 nM	57%	
CCN(c1ncc(-c2cccn2C)cc1CN1C(=O)O[C@H](c2cc(C(F)(F)F)cc(C(F)(F)F)c2)[C@@H]1C)C1CCCCC1 [Example 56, (4S,5R)-5-[3,5-bis(trifluoromethyl)phenyl]-4-methyl-3-({[2-(ethyl)(cyclohexyl-4-yl)amino]-5-(1-methyl-1H-pyrrol-2-yl)pyridin-3-yl}methyl) oxazolidin-2-one]	10.9 nM	49%	
CCN(c1ncc(-c2c(C)noc2C)cc1CN1C(=O)O[C@H](c2cc(C(F)(F)F)cc(C(F)(F)F)c2)[C@@H]1C)C1CCCCC1 [Example 58, (4S,5R)-5-[3,5-bis(trifluoromethyl)phenyl]-4-methyl-3-({[2-(ethyl)(cyclohexyl)amino]-5-(3,5-dimethylisoxazol-4-yl)pyridin-3-yl}methyl)-oxazoliclin-2-one]	2.7 nM	55%	Relative Increase HDL-C (%) to VC (Vehicle) (Blood HDL-C): 47%; concentration at 2 h [3, 4]: 10200 ng/g; concentration at 2 h [3, 5]: 606 ng/mL; concentration at 2 h [3, 6]: 415 ng/g; Distribution between blood, liver and adipose tissues (in words) [3]: at low levels in blood and liver tissues, but at high levels in adipose tissues
CCN(c1ncc(-c2ccsc2)cc1CN1C(=O)O[C@H](c2cc(C(F)(F)F)cc(C(F)(F)F)c2)[C@@H]1C)C1CCCCC1 [Example 77, (4S,5R)-5-[3,5-bis(trifluoromethyl)phenyl]-4-methyl-3-({[2-(ethyl)(cyclohexyl)amino]-5-(thiophen-3-yl)pyridin-3-yl}methyl)-oxazolidin-2-one]	2.1 nM	50%	
CCN(c1ncc(-c2csnc2C)cc1CN1C(=O)O[C@H](c2cc(C(F)(F)F)cc(C(F)(F)F)c2)[C@@H]1C)C1CCCCC1 [Example 87, (4S,5R)-5-[3,5-bis(trifluoromethyl)phenyl]-4-methyl-3-({[2-(ethyl)(cyclohexyl)amino]-5-(3-methyl-isothioxazol-4-yl)pyridin-3-yl}methyl)-oxazolidin-2-one]	5.6 nM	59%	
CCN(c1ncc(N2CCCC2)cc1CN1C(=O)O[C@H](c2cc(C(F)(F)F)cc(C(F)(F)F)c2)[C@@H]1C)C1CCCCC1 [Example 88, (4S,5R)-5-[3,5-bis(trifluoromethyl)phenyl]-4-methyl-3-({[2-(ethyl)(cyclohexyl)amino]-5-(pyrrolidin-1-yl)pyridin-3-yl}methyl)-oxazolidin-2-one]	10.7 nM	45%	
CCN(c1ncc(N2CCCC2C)cc1CN1C(=O)O[C@H](c2cc(C(F)(F)F)cc(C(F)(F)F)c2)[C@@H]1C)C1CCCCC1 (stereo partly drawn) [Example 89, (4S,5R)-5-[3,5-bis(trifluoromethyl)phenyl]-4-methyl-3-({[2-(ethyl)(cyclohexyl)amino]-5-(2-methyl-pyrrolidin-1-yl)pyridin-3-yl}methyl)-oxazolidin-2-one]	7 nM	53%	
CCN(c1ncc(-c2c(C)noc2C)nc1CN1C(=O)O[C@H](c2cc(C(F)(F)F)cc(C(F)(F)F)c2)[C@@H]1C)C1CCCCC1 [Example 96, (4S,5R)-5-[3,5-bis(trifluoromethyl)phenyl]-4-methyl-3-({[2-(ethyl)(cyclohexyl)amino]-5-(3,5-dimethyl-isoxazol-4-yl)pyrazin-3-yl}methyl)-oxazolidin-2-one]	2 nM	56%	Relative Increase HDL-C (%) to VC (Vehicle) (Blood HDL-C): 48%; concentration at 2 h [3, 4]: 7900 ng/g; concentration at 2 h [3, 5]: 309 ng/mL; concentration at 2 h [3, 6]: 128 ng/g; Distribution between blood, liver and adipose tissues (in words) [3]: at low levels in blood and liver tissues, but at high levels in adipose tissues
CCN(C[C@H]1CC[C@H](CC(=O)O)CC1)c1ncc(N2CCCC2)nc1CN1C(=O)OC(c2cc(C(F)(F)F)cc(C(F)(F)F)c2)[C@@H]1C (some centres unmarked) [Example 103]	3.26 nM	52%	Relative Increase HDL-C (%) to VC (Vehicle) (Blood HDL-C): 47%
CCN(CC1CCC(CC(=O)O)CC1)c1ncc(-c2ccsc2)nc1CN1C(=O)OC(c2cc(C(F)(F)F)cc(C(F)(F)F)c2)C1C [Example 105, trans-4-({[3-({(4S,5S)-5-[3,5-bis(trifluoromethyl)phenyl]-4-methyl-2-oxazolidin-3-yl}methyl)-5-(thiophen-3-yl)pyrazin-2-yl]{[N-(ethyl)aminomethyl]cyclohexyl)}acetic acid]	0.8 nM	72%	
CCCN(C[C@H]1CC[C@H](CC(=O)O)CC1)c1ncc(N2CCCC2)nc1CN1C(=O)OC(c2cc(C(F)(F)F)cc(C(F)(F)F)c2)[C@@H]1C (some centres unmarked) [Example 124]	7.13 nM	52%	
CCCN(CC1CCC(CC(=O)O)CC1)c1ncc(C2CC2)nc1CN1C(=O)OC(c2cc(C(F)(F)F)cc(C(F)(F)F)c2)C1C (centres unmarked) [Example 125]	40.3 nM	56%	Relative Increase HDL-C (%) to VC (Vehicle) (Blood HDL-C): 27%
(4S,5R)-5-[3,5-bis(trifluoromethyl)phenyl]-4-methyl-3-({[2-(ethyl)(cyclohexyl)amino]-5-(1,3-dimethyl-1H-pyrazol-4-yl)pyridin-3-yl}methyl)-oxazolidin-2-one [Example 69]	13.4 nM		
(4S,5R)-5-[3,5-bis(trifluoromethyl)phenyl]-4-methyl-3-({[2-(ethyl)(cyclohexyl)amino]-5-(2,4-dimethyl-thiazol-5-yl)pyridin-3-yl}methyl)-oxazolidin-2-one [Example 84]	29.7 nM		
(4S,5R)-5-[3,5-bis(trifluoromethyl)phenyl]-4-methyl-3-({[2-(ethyl)(cyclohexyl)amino]-5-(3-methoxy-thiophen-2-yl)pyridin-3-yl}methyl)-oxazolidin-2-one [Example 70]	9.9 nM		
(4S,5R)-5-[3,5-bis(trifluoromethyl)phenyl]-4-methyl-3-({[2-(methyl)(cyclohexyl)amino]-5-(3,5-dimethyl-isoxazol-4-yl)pyrazin-3-yl}methyl)-oxazolidin-2-one [Example 95]	3.8 nM		
(4S,5S)-5-[3,5-bis(trifluoromethyl)phenyl]-4-methyl-3-({[2-(methyl)(tetrahydro-2H-pyran-4-yl)amino]-5-(trifluoromethyl)pyridin-3-yl}methyl)-oxazolidin-2-one [Example 6]	49 nM		
